US20230372319A1, “Combination Treatment of Cancer” (Ares Trading S.A., priority 2020, published 2023)

Legend:
[1] = test system: MDA-MB-231 human breast cancer; test: MDA-MB-231 breast cancer model; assay type: in vivo; details: NOD/SCID mice, s.c.; bintrafusp alfa 492 μg i.v. BiWx4; niraparib 50 mg/kg p.o. QDx28; day 41; vs isotype control or monotherapies as stated
Method: NOD/SCID mice were subcutaneously inoculated with MDA-MB-231 cells (10×10^6) in the right flank (day −19). […] Tumor volumes were measured twice weekly and presented as mean ±SEM or as individual tumor volumes. P-values were calculated by two-way ANOVA with Tukey's post-test.
MDA-MB-231 (BRCA-wt) cells were obtained from ATCC (ATCC® HTB-26™) and were cultured in Leibovitz's L-15 supplemented with 15% heat inactivated fetal bovine serum, 100 U/ml penicillin and 100 μg/ml streptomycin at 37° C. in an atmosphere of 5% CO2 in air. […] Cells were cultured under aseptic conditions and incubated at 37° C. with 5% CO2. Cells were passaged before in vivo implantation and adherent cells were harvested with TrypLE Express. […]
(§1) Tumor sizes were measured twice per week with digital calipers and recorded automatically using WinWedge software. Tumor volumes were calculated with the following formula: tumor volume (mm^3)=tumor length×width×height×0.5236. Tumor growth inhibition (TGI) was calculated with the following formula: TGI (%)=[1−(Ti−T0)/(Vi−V0)]×100, where Ti is the average tumor volume (mm^3) of a treatment group on a given day, T0 is the average tumor volume of the treatment group on the first day of treatment, Vi is the average tumor volume of the vehicle control group on the same day as Ti, and V0 is the average tumor volume of the vehicle control group on the first day of treatment. […]

[2] = test system: AT-3 cells; test: Orthotopic AT-3 breast cancer model; assay type: in vivo, C57BL/6 mice; details: for median survival: isotype control 13 days; for responders (mice with tumor volumes<1 σ of the control group mean): day 13 post treatment start, n=10 mice/group
Method: C57BL/6 mice were inoculated orthotopically with AT3 cells (0.5×10^6) in the mammary fat pad (day −11). […] Tumor volumes were measured twice weekly. In the lower plot, individual tumor volumes at day 13 are presented with a line representing the median tumor volume and error bars showing the 95% confidence intervals. […] P-values were calculated by two-way ANOVA with Tukey's post-test.
AT-3 cells were obtained from Sigma and were cultured in DMEM supplemented with 10% FBS, 1 mM sodium pyruvate, 2 mM non-essential amino acids, 15 mM HEPES, and 1×β-mercaptoethanol. […] Cells were cultured under aseptic conditions and incubated at 37° C. with 5% CO2. Cells were passaged before in vivo implantation and adherent cells were harvested with TrypLE Express.
For the efficacy study, 0.5×10^6 AT-3 cells were inoculated orthotopically into the right lower mammary at pad of C57BL/6 mice on day −11. Treatment was initiated on day 0 when average tumor volume reached ˜50 mm^3. Mice were sacrificed when tumor volumes reached ˜1000 mm^3.
Mice were randomized into treatment groups according to tumor volume on the day of treatment initiation (day 0).
The isotype control is a mutated version of anti-PD-L1, which completely lacks PD-L1 binding. In tumor-bearing mice, bintrafusp alfa (492 μg) or isotype control (400 μg) were administered with an intravenous (i.v.) injection in 0.2 mL PBS.
Radiation therapy (RT) was delivered at 8 Grey (Gy) on days 0-3.
Tumor sizes were measured twice per week with digital calipers and recorded automatically using WinWedge software. Tumor volumes were calculated with the following formula: tumor volume (mm^3)=tumor length×width×height×0.5236. Tumor growth inhibition (TGI) was calculated with the following formula: TGI (%)=[1−(Ti−T0)/(Vi−V0)]×100, where Ti is the average tumor volume (mm^3) of a treatment group on a given day, T0 is the average tumor volume of the treatment group on the first day of treatment, Vi is the average tumor volume of the vehicle control group on the same day as Ti, and V0 is the average tumor volume of the vehicle control group on the first day of treatment. To compare the percentage survival between different treatment groups, Kaplan-Meier survival curves were generated. Body weight was measured twice weekly and mice were sacrificed when their tumor volume exceeded 2,500 mm^3 for s.c. and intramuscular tumors and 1,000 mm^3 for mammary orthotopic tumors.

[3] = test system: RENCA cells; details: BALB/c mice, day 12; bintrafusp alfa 492 μg i.v. days 0, 2, 5; niraparib 50 mg/kg p.o. days 0-11
Method: BALB/c mice were inoculated orthotopically with RENCA cells (0.5×10^5) in the left kidney (day −6). […] Mice were euthanized at day 12 and both kidneys were weighed. The weight of the tumor bearing left kidney was divided by the weight of the bilateral right kidney to calculate the kidney mass ratio. Individual kidney mass ratios were plotted, with a line representing the median.
The RENCA cells were obtained from ATCC (ATCC® CRL-2947™) and were cultured in RPMI-1640 with 10% heat inactivated fetal bovine serum and 0.1 mM non-essential amino acids. […] Cells were cultured under aseptic conditions and incubated at 37° C. with 5% CO2. […]
as §1

[4] = test system: B16F10 cells; test: Subcutaneous B16F10 melanoma model; assay type: in vivo; details: C57BL/6 mice, s.c.; bintrafusp alfa 492 μg i.v. days 0, 3, 6; niraparib 50 mg/kg p.o. QDx14; days 15/19; vs isotype control or monotherapies as stated
Method: C57BLJ6 mice were inoculated subcutaneously with B16F10 cells (0.5×10^6) in the flank. […] Tumor volumes were measured twice weekly and presented as mean ±SEM or as individual tumor volumes. P-values were calculated by two-way ANOVA with Tukey's or Sidak's post-test.
B16F10 cells were obtained from (ATCC) and were cultured in Dulbecco's Modified Eagle's medium (DMEM) supplemented with 10% fetal bovine serum (FBS). […] Cells were cultured under aseptic conditions and incubated at 37° C. with 5% CO2. Cells were passaged before in vivo implantation and adherent cells were harvested with TrypLE Express. […]
as §1

[5] = test system: PARP activity in various cell lines; details: cited from earlier work
[6] = test system: MDA-MB-436 human breast cancer cell line; test: MDA-MB-436 breast cancer model; assay type: in vivo; details: NOD/SCID mice, bintrafusp alfa 492 μg i.v. BiWx4, niraparib 35 mg/kg p.o. QDx28
Method: NOD/SCID mice were inoculated with MDA-MB-436 cells (10×10^6) in the right flank (day −19). […] Tumor volumes were measured twice weekly and presented as mean ±SEM or as individual tumor volumes. P-values were calculated by two-way ANOVA with Tukey's or Sidak's post-test.
MDA-MB-436 (BRCA1-mut) cells were obtained from American Type Culture Collection (ATCC® HTB-130™) and were cultured in RPMI-1640 supplemented with 10% heat inactivated fetal bovine serum, 100 U/ml penicillin and 100 μg/ml streptomycin at 37° C. in an atmosphere of 5% CO2 in air. […] Cells were cultured under aseptic conditions and incubated at 37° C. with 5% CO2. […]
as §1

In the case of “bintrafusp alfa: anti-PD-L1:TGFβRII fusion protein; human IgG1 antibody against PD-L1 fused to extracellular domain of human TGF-β receptor II; SEQ ID NO: 7 and 8”, the “tumor growth (tumor volume), in words” value [1] is reported as “significantly reduced tumor growth”, the “tumor growth relative to isotype control or bintrafusp alfa monotherapy, in words” value ([2]; C57BL/6 mice, day 13, bintrafusp alfa 492 μg i.v. days 0, 3, 6, niraparib 50 mg/kg p.o. days 0-13) is reported as “did not significantly reduce tumor growth” and the median survival ([2]; C57BL/6 mice) is reported as 13 days. For the same molecule, the “responders (mice with tumor volumes<1 σ of the control group mean)” value [2] was 1/10, the “relative kidney tumor burden: ratio of mass of tumor bearing kidney to bilateral normal kidney (median)” value [3] was 3.74 and the “tumor growth (tumor volume), in words” value [4] was “neither bintrafusp alfa nor niraparib monotherapies significantly reduced tumor growth”.

In the case of `NC(=O)c1cccc2cn(-c3ccc([C@@H]4CCCNC4)cc3)nc12` [niraparib, (3S)-3-[4-{7-(aminocarbonyl)-2H-indazol-2-yl}phenyl]piperidine], the “inhibitory concentration at 90% of control (1090) of PARP activity in cells” value ([5]; PARP activity stimulated by DNA damage caused by hydrogen peroxide) is listed as ~50 nM, the IC50 ([5]; read-out: IC50 of PARP activity in cells, PARP activity stimulated by DNA damage caused by hydrogen peroxide) is listed as ~4 nM and the “tumor growth (tumor volume), in words” value [1] is listed as “significantly reduced tumor growth”. The “median time to disease progression after stopping treatment” value [6] was 42.5 days, the “tumor growth (tumor volume), in words” value ([6]; vs isotype control or monotherapy as stated, days 41/69) was “significantly inhibited tumor growth” and the median survival ([2]; C57BL/6 mice) was 13 days. For the same molecule, the “responders (mice with tumor volumes<1 σ of the control group mean)” value [2] was 5/10 and the “tumor growth (tumor volume), in words” value [4] was “neither bintrafusp alfa nor niraparib monotherapies significantly reduced tumor growth”.
